Measurements as given in ChEMBL document CHEMBL1201862, “PubChem BioAssay data set” (2004).
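Where inhibition never reached the appropriate level, the endpoint shown equals the highest concentration tested. Otherwise, values were interpolated linearly from a five-concentration, 48-hour dose response in 96-well plates. GI50 marks 50% less growth.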 Calls of active or inactive are those of the source. No stated cut-off is given here; in the data, active = GI50 up to about 1.1 µM and inactive = higher.

Columns and labels:
Assay in all cases: DTP human tumour cell line panel, 48 h
NCI-H23 = system: NCI-H23
NCI/ADR-RES = system: NCI/ADR-RES
NCI-H460 = system: NCI-H460
CCRF-CEM = system: CCRF-CEM
MDA-MB-231 = system: MDA-MB-231
COLO 205 = system: COLO 205
SK-MEL-28 = system: SK-MEL-28
DU-145 = system: DU-145
PC-3 = system: PC-3
SK-MEL-2 = system: SK-MEL-2
OVCAR-8 = system: OVCAR-8
SF-539 = system: SF-539
KM12 = system: KM12
SK-MEL-5 = system: SK-MEL-5
OVCAR-5 = system: OVCAR-5
HCT-116 = system: HCT-116
MDA-N = system: MDA-N
SK-OV-3 = system: SK-OV-3
786-0 = system: 786-0
SNB-19 = system: SNB-19
SF-295 = system: SF-295
ACHN = system: ACHN
U-251 = system: U-251
SF-268 = system: SF-268
M14 = system: M14
HT-29 = system: HT-29
HOP-62 = system: HOP-62
UACC-62 = system: UACC-62
HCT-15 = system: HCT-15
A498 = system: A498
UACC-257 = system: UACC-257
NCI-H522 = system: NCI-H522
CAKI-1 = system: CAKI-1
EKVX = system: EKVX
MDA-MB-435 = system: MDA-MB-435
MOLT-4 = system: MOLT-4
K562 = system: K562
Hs-578T = system: Hs-578T
SW-620 = system: SW-620
OVCAR-3 = system: OVCAR-3
HCC 2998 = system: HCC 2998
RPMI-8226 = system: RPMI-8226
BT-549 = system: BT-549
UO-31 = system: UO-31
RXF 393 = system: RXF 393
MCF7 = system: MCF7
HOP-92 = system: HOP-92
SN12C = system: SN12C
HL-60 = system: HL-60
LOX IMVI = system: LOX IMVI
T47D = system: T47D
TK-10 = system: TK-10
IGROV-1 = system: IGROV-1
A549 = system: A549
NCI-H226 = system: NCI-H226
Malme-3M = system: Malme-3M
OVCAR-4 = system: OVCAR-4
SNB-75 = system: SNB-75

O=C(NC1(C(=O)O)CCCC1)c1ccccc1
GI50 (NCI-H23): > 100 µM (inactive)
GI50 (NCI/ADR-RES): > 100 µM (inactive)
GI50 (NCI-H460): > 100 µM (inactive)
GI50 (CCRF-CEM): > 100 µM (inactive)
GI50 (MDA-MB-231): > 100 µM (inactive)
GI50 (COLO 205): > 100 µM (inactive)
GI50 (SK-MEL-28): > 100 µM (inactive)
GI50 (DU-145): > 100 µM (inactive)
GI50 (PC-3): > 100 µM (inactive)
GI50 (SK-MEL-2): > 100 µM (inactive)
GI50 (OVCAR-8): > 100 µM (inactive)
GI50 (SF-539): > 100 µM (inactive)
GI50 (KM12): > 100 µM (inactive)
GI50 (SK-MEL-5): > 100 µM (inactive)
GI50 (OVCAR-5): > 100 µM (inactive)
GI50 (HCT-116): > 100 µM (inactive)
GI50 (MDA-N): > 100 µM (inactive)
GI50 (SK-OV-3): > 100 µM (inactive)
GI50 (786-0): > 100 µM (inactive)
GI50 (SNB-19): > 100 µM (inactive)
GI50 (SF-295): > 100 µM (inactive)
GI50 (ACHN): > 100 µM (inactive)
GI50 (U-251): > 100 µM (inactive)
GI50 (SF-268): > 100 µM (inactive)
GI50 (M14): > 100 µM (inactive)
GI50 (HT-29): > 100 µM (inactive)
GI50 (HOP-62): > 100 µM (inactive)
GI50 (UACC-62): > 100 µM (inactive)
GI50 (HCT-15): > 100 µM
GI50 (A498): > 100 µM (inactive)
GI50 (UACC-257): > 100 µM (inactive)
GI50 (NCI-H522): > 100 µM (inactive)
GI50 (CAKI-1): > 100 µM (inactive)
GI50 (EKVX): > 100 µM (inactive)
GI50 (MDA-MB-435): > 100 µM (inactive)
GI50 (MOLT-4): > 100 µM (inactive)
GI50 (K562): > 100 µM (inactive)
GI50 (Hs-578T): > 100 µM (inactive)
GI50 (SW-620): > 100 µM (inactive)
GI50 (OVCAR-3): > 100 µM (inactive)
GI50 (HCC 2998): > 100 µM (inactive)
GI50 (RPMI-8226): > 100 µM (inactive)
GI50 (BT-549): > 100 µM (inactive)
GI50 (UO-31): > 100 µM (inactive)
GI50 (RXF 393): > 100 µM (inactive)
GI50 (MCF7): > 100 µM (inactive)
GI50 (HOP-92): > 100 µM (inactive)
GI50 (SN12C): > 100 µM (inactive)
GI50 (HL-60): > 100 µM (inactive)
GI50 (LOX IMVI): > 100 µM (inactive)
GI50 (T47D): > 100 µM (inactive)
GI50 (TK-10): > 100 µM (inactive)
GI50 (IGROV-1): > 100 µM (inactive)
GI50 (A549): > 100 µM (inactive)
GI50 (NCI-H226): > 100 µM (inactive)

CCN1CC2(C)CCC(OC)C34C5CC6CCC(O)(C5C(=O)O6)C(C(O)C23)C14 (stereo not given)
GI50 (NCI-H23): > 100 µM (inactive)
GI50 (NCI/ADR-RES): > 100 µM (inactive)
GI50 (NCI-H460): > 100 µM (inactive)
GI50 (CCRF-CEM): > 100 µM (inactive)
GI50 (Malme-3M): > 100 µM (inactive)
GI50 (MDA-MB-231): > 100 µM (inactive)
GI50 (OVCAR-4): > 100 µM (inactive)
GI50 (COLO 205): > 100 µM (inactive)
GI50 (SK-MEL-28): > 100 µM (inactive)
GI50 (DU-145): > 100 µM (inactive)
GI50 (PC-3): > 100 µM (inactive)
GI50 (SK-MEL-2): > 100 µM (inactive)
GI50 (OVCAR-8): > 100 µM (inactive)
GI50 (SF-539): > 100 µM (inactive)
GI50 (KM12): > 100 µM (inactive)
GI50 (SK-MEL-5): > 100 µM (inactive)
GI50 (OVCAR-5): > 100 µM (inactive)
GI50 (HCT-116): > 100 µM (inactive)
GI50 (MDA-N): > 100 µM (inactive)
GI50 (SK-OV-3): > 100 µM (inactive)
GI50 (786-0): > 100 µM (inactive)
GI50 (SNB-19): > 100 µM (inactive)
GI50 (SF-295): > 100 µM (inactive)
GI50 (ACHN): > 100 µM (inactive)
GI50 (U-251): > 100 µM (inactive)
GI50 (SF-268): > 100 µM (inactive)
GI50 (M14): > 100 µM (inactive)
GI50 (HT-29): > 100 µM (inactive)
GI50 (HOP-62): > 100 µM (inactive)
GI50 (UACC-62): > 100 µM (inactive)
GI50 (HCT-15): > 100 µM
GI50 (A498): > 100 µM (inactive)
GI50 (SNB-75): > 100 µM (inactive)
GI50 (UACC-257): > 100 µM (inactive)
GI50 (NCI-H522): > 100 µM (inactive)
GI50 (CAKI-1): > 100 µM (inactive)
GI50 (EKVX): > 100 µM (inactive)
GI50 (MDA-MB-435): > 100 µM (inactive)
GI50 (MOLT-4): > 100 µM (inactive)
GI50 (K562): > 100 µM (inactive)
GI50 (Hs-578T): > 100 µM (inactive)
GI50 (SW-620): > 100 µM (inactive)
GI50 (OVCAR-3): > 100 µM (inactive)
GI50 (HCC 2998): > 10 µM (inactive)
GI50 (RPMI-8226): > 100 µM (inactive)
GI50 (BT-549): > 100 µM (inactive)
GI50 (UO-31): > 100 µM (inactive)
GI50 (RXF 393): > 100 µM (inactive)
GI50 (MCF7): > 100 µM (inactive)
GI50 (HOP-92): > 100 µM (inactive)
GI50 (HL-60): > 100 µM (inactive)
GI50 (LOX IMVI): > 100 µM (inactive)
GI50 (T47D): > 100 µM (inactive)
GI50 (TK-10): > 100 µM (inactive)
GI50 (IGROV-1): > 100 µM (inactive)
GI50 (A549): > 100 µM (inactive)

COc1cc(/C=C2\C[C@H]3[C@@H]4CC=C5C[C@@H](N6CCCC6)CC[C@]5(C)[C@H]4CC[C@]3(C)[C@H]2OC(C)=O)cc(OC)c1OC
GI50 (NCI-H23): 15.2 µM (inactive)
GI50 (NCI/ADR-RES): 16.3 µM (inactive)
GI50 (CCRF-CEM): 12.9 µM (inactive)
GI50 (Malme-3M): 21.5 µM (inactive)
GI50 (MDA-MB-231): 16.3 µM (inactive)
GI50 (OVCAR-4): 18.2 µM (inactive)
GI50 (COLO 205): 12.9 µM (inactive)
GI50 (SK-MEL-28): 19 µM (inactive)
GI50 (DU-145): 17.3 µM (inactive)
GI50 (PC-3): 14.2 µM (inactive)
GI50 (SK-MEL-2): 17.7 µM (inactive)
GI50 (OVCAR-8): 15 µM (inactive)
GI50 (KM12): 15.1 µM (inactive)
GI50 (SK-MEL-5): 15.1 µM (inactive)
GI50 (OVCAR-5): 15.8 µM (inactive)
GI50 (HCT-116): 15.5 µM (inactive)
GI50 (MDA-N): 10.9 µM (inactive)
GI50 (SK-OV-3): 15.3 µM (inactive)
GI50 (786-0): 11.3 µM (inactive)
GI50 (SNB-19): 18.4 µM (inactive)
GI50 (SF-295): 12.8 µM (inactive)
GI50 (ACHN): 18.9 µM (inactive)
GI50 (U-251): 15.8 µM (inactive)
GI50 (SF-268): 14.6 µM (inactive)
GI50 (M14): 15.8 µM (inactive)
GI50 (HT-29): 10 µM (inactive)
GI50 (HOP-62): 15.6 µM (inactive)
GI50 (UACC-62): 17.5 µM (inactive)
GI50 (HCT-15): 12.6 µM
GI50 (A498): 15.2 µM (inactive)
GI50 (SNB-75): 15.4 µM (inactive)
GI50 (UACC-257): 19.6 µM (inactive)
GI50 (NCI-H522): 16.7 µM (inactive)
GI50 (CAKI-1): 17 µM (inactive)
GI50 (EKVX): 14.3 µM (inactive)
GI50 (MDA-MB-435): 12.9 µM (inactive)
GI50 (MOLT-4): 6.38 µM (inactive)
GI50 (Hs-578T): 17.8 µM (inactive)
GI50 (SW-620): 14.8 µM (inactive)
GI50 (OVCAR-3): 15.5 µM (inactive)
GI50 (HCC 2998): 2.38 µM (inactive)
GI50 (RPMI-8226): 5.27 µM (inactive)
GI50 (BT-549): 14.9 µM (inactive)
GI50 (UO-31): 15 µM (inactive)
GI50 (RXF 393): 11.5 µM (inactive)
GI50 (MCF7): 15.9 µM (inactive)
GI50 (HOP-92): 10.3 µM (inactive)
GI50 (SN12C): 14 µM (inactive)
GI50 (HL-60): 21.9 µM (inactive)
GI50 (T47D): 20.3 µM (inactive)
GI50 (TK-10): 20.6 µM (inactive)
GI50 (IGROV-1): 16.3 µM (inactive)
GI50 (A549): 15.3 µM (inactive)
GI50 (NCI-H226): 24.8 µM (inactive)
